Measured values as given in PMC12523843, “Kuwanon A Targeted YWHAB in Hepatocellular Carcinoma Cells to Inhibit the Raf/MEK/ERK Signaling Pathway” (Cells, 2025).
Read-outs that look alike come from different tables or passages of the source.

How the values were obtained:
MHCC97 H cells [1] = test: MTT IC50 determination in MHCC97 H; assay type: cell-based, human; conditions: MTT method, read-out: IC50 in MHCC97 H (screen)
Procedure: (§1) Cell viability was assessed using MTT experiments. Cells, together with KA, were seeded into 96-well plates at a density of 2000 cells per well with three replicates per condition. DMSO was used as a control. At designated time points, 20 μL of MTT (Sigma, St. Louis, MO, USA) solution was added to each well and incubated for 3 h. After removing the culture medium, 200 μL of DMSO was added to dissolve the formazan crystals. The absorbance was then measured using a microplate reader at a wavelength of 560 nm.

[2] = test system: MHCC97H and SMMC 7721 cells; test: CCK8 cell viability screen of mulberry active substances; assay type: cell-based, human; conditions: 10 μM, 48 h
Procedure: The CCK8 assay is used to investigate the effect of compounds on cell viability by measuring the amount of formazan dye. Firstly, 8000 cells were inoculated into each well of the 96-well plate with three replicates per condition. At the same time, add the corresponding mulberry active substances. After 48 h of incubation, 20 μL of the Cell Counting Kit-8 (CCK8) reagent (Beyotime, Shanghai, China) was added to each well. After being cultured under 37 °C and 5% carbon dioxide for 2–3 h, the absorbance was measured at 450 nm.

[3] = test system: normal human liver cells (L-O2); test: MTT IC50 determination in normal liver cells; assay type: cell-based; conditions: L-O2, MTT method
Procedure: as §1

MHCC97 H cells [4] = test: Transwell migration screen of selected compounds; assay type: cell-based, human; conditions: compounds at an IC50 concentration
Procedure: (§2) The Transwell assay measured the migration and invasion of cells by calculating the number of cells that passed through the material. Prior to the Transwell migration assay, cells were serum-starved in FBS-free culture medium for 24 h. The cells were then detached using trypsin, washed 1–2 times with PBS, and resuspended in DMEM. Approximately 50,000–100,000 cells were seeded into the upper chamber of the Transwell insert. The lower chamber was filled with 600 μL of complete medium containing the test compound. The Transwell system was incubated for 12 h under standard culture conditions (37 °C, 5% CO2). After incubation, the migrated cells on the lower membrane surface were fixed with 4% paraformaldehyde (PFA) and stained with 0.1% crystal violet. Non-migrated cells remaining in the upper chamber were carefully removed with a cotton swab. Finally, the stained cells were visualized under a microscope. If matrix gel was needed, it should be added according to the instructions (Beyotime, Shanghai, China) before the cells were seeded.

[5] = test system: HCC cells (MHCC97 H and SMMC 7721); test: Transwell migration (without Matrix-Gel) and invasion (with Matrix-Gel) assay; assay type: cell-based, human; conditions: Sorafenib 10 μM alone or 10 μM KA and 10 μM Sorafenib, 48 h
Procedure: as §2, with “The Transwell system was incubated for 12 h under standard culture conditions (37 °C, 5% CO2).” left out

MHCC97 H cells [6] = test system: MHCC97 H cells; set-up: method as in MCE website (https://www.medchemexpress.cn/); conditions: ref MCE website (https://www.medchemexpress.cn/); read-out: IC50 of Sorafenib in MHCC97 H; cited from earlier work
SMMC 7721 cells = test system: SMMC 7721 cells; set-up: method as in MCE website (https://www.medchemexpress.cn/); conditions: ref MCE website (https://www.medchemexpress.cn/); read-out: IC50 of Sorafenib in SMMC 7721; cited from earlier work
YWHAB (tyrosine …) = molecular target: T1, YWHAB (tyrosine 3-monooxygenase/tryptophan 5-monooxygenase activation protein beta), endogenous in HCC cells (human (endogenous in MHCC97 H and SMMC 7721)), P31946; test: native gel or EMSA; Blue native PAGE of cell lysates (IP cell lysis buffer, Coomassie G-250), then immunoblot; cells treated with KA or DMSO (less dimer with KA); conditions: remark: other sources report otherwise
T1 chain: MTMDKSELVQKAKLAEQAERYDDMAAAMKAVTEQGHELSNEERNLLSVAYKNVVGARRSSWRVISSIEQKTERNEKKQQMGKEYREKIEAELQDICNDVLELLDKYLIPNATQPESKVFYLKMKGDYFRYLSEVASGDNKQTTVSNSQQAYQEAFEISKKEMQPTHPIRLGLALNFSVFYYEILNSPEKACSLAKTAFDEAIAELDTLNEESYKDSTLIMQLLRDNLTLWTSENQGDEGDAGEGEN

FLAG-YWHAB, P31946 = molecular target: T2, FLAG-YWHAB, P31946; test: as above; conditions: remark: other sources report otherwise
T2 chain: T1 chain

Molecule: CC(C)=CCc1c(-c2ccc(O)cc2O)oc2c3c(cc(O)c2c1=O)OC(C)(C)C=C3 [Morusin]
- IC50 (MHCC97 H cells [1]; Homo sapiens, MHCC97H): < 20 µM

Molecule: CC(C)=CCc1c(-c2ccc(O)cc2O)oc2c([C@H]3C=C(C)C[C@@H](c4ccc(O)cc4O)[C@@H]3C(=O)c3ccc(O)cc3O)c(O)cc(O)c2c1=O [Kuwanon G, kuwanon G]
- IC50 (MHCC97 H cells [1]): < 20 µM

Molecule: sanggenone D
- IC50 (MHCC97 H cells [1]): < 20 µM

Molecule: Cc1cc2c3c(c1)-c1c(O)cc(-c4cc5ccc(O)cc5o4)cc1OC3(c1ccc(O)cc1O)Oc1cc(O)ccc1-2 (centres unmarked) [Albanol B, albanol B]
- viability of HCC cells (CCK8) [2]: significantly inhibited the viability of HCC cells
- IC50 (MHCC97 H cells [1]): < 20 µM
- IC50 in normal liver cells [3]: relatively low
- migration of MHCC97 H (Transwell) (MHCC97 H cells [4]): significantly inhibited the migration of MHCC97 H

Molecule: CC(C)=CCC/C(C)=C/Cc1c(O)ccc(-c2oc3cc(O)cc(O)c3c(=O)c2CC=C(C)C)c1O [L8-06, 3'-geranyl-3-prenyl-2',4',5,7-tetrahydroxyflavone]
- IC50 (MHCC97 H cells [1]; Homo sapiens, MHCC97H): < 20 µM

Molecule: sanggenone C
- viability of HCC cells (CCK8) [2]: significantly inhibited the viability of HCC cells
- IC50 (MHCC97 H cells [1]): < 20 µM

Molecule: CC(C)(O)CCc1c(-c2ccc(O)cc2O)oc2c3c(cc(O)c2c1=O)OC(C)(C)C=C3 [Morusinol]
- IC50 (MHCC97 H cells [1]; Homo sapiens, MHCC97H): < 20 µM

Molecule: sanggenol L
- viability of HCC cells (CCK8) [2]: significantly inhibited the viability of HCC cells
- IC50 (MHCC97 H cells [1]): < 20 µM
- migration of MHCC97 H (Transwell) (MHCC97 H cells [4]): significantly inhibited the migration of MHCC97 H

Molecule: CC(C)=CCc1c(-c2ccc(O)cc2O)oc2c(CC=C(C)C)c(O)cc(O)c2c1=O [Mulberrin]
- IC50 (MHCC97 H cells [1]): < 20 µM

Molecule: CNC(=O)c1cc(Oc2ccc(NC(=O)Nc3ccc(Cl)c(C(F)(F)F)c3)cc2)ccn1 [Sorafenib]
- HCC cell migration/invasion (Transwell, polycarbonate membrane or Matrigel) [5]: no significant effect
- IC50 (MHCC97 H cells [6]): ~10 µM
- IC50 (SMMC 7721 cells): ~10 µM

B1: YWHAB (tyrosine 3-monooxygenase/tryptophan 5-monooxygenase activation protein beta), endogenous in HCC cells, P31946 1-246 (natural protein)
chain: T1 chain
- stoichiometry N (YWHAB (tyrosine …)): 2

B2: FLAG-YWHAB, P31946 1-246 (natural protein)
chain: T1 chain
- stoichiometry N (FLAG-YWHAB, P31946): 2
